Key:
Format in all cases: cell-based
[1] = tested on: Yersinia pestis, Yersinia enterocolitica and Yersinis pseudomonas
[2] = tested on: Yersinia pestis, Yersinia enterocolitica
[3] = tested on: A549 human lung epithelial cells

CCCC(=[Se])NC1CCOC1=O (stereo not shown) [(IV), N-(2-oxo-tetrahydro-furan-3-yl)-selenobutyramide]
viability of biofilm-growing bacteria [1]: significantly inhibited | biofilm formation [2]: significantly inhibited | infection of cells by Pseudomonas aeruginosa [3]: prevented the infection of cells | viability of cells [3]: increase in the viability of cells

Source: patent US8350061B2, “Synthetic analogs of bacterial quorum sensors” (priority 2009, dated 2013)
